19 compounds from patent US10206902B2, “Mono- or di-substituted indoles as dengue viral replication inhibitors” (priority 2014, dated 2019) can be followed below.

The test system of series [1] is DENV-2 16681 strain. Nature of the series: DENV-2 antiviral assay (eGFP-labelled virus in Vero cells). Format: cell-based, Dengue virus. Particulars: DENV-2 16681 eGFP, MOI 0.5, 3 days. Here is the method: The antiviral activity of all the compounds of the invention was tested against DENV-2 16681 strain which was labeled with enhanced green fluorescent protein (eGPF). The culture medium consists of minimal essential medium supplemented with 2% of heat-inactivated fetal calf serum, 0.04% gentamycin (50 mg/mL) and 2 mM of L-glutamine. Vero cells, obtained from ECACC, were suspended in culture medium and 25 μL was added to 384-well plates (2500 cells/well), which already contain the antiviral compounds. Typically, these plates contain a 4-fold serial dilution of 9 dilution steps of the test compound at 200 times the final concentration in 100% DMSO (200 nL). In addition, each compound concentration is tested in quadruplicate (final concentration range: 25 μM-0.00038 μM). Finally, each plate contains wells which are assigned as virus controls (containing cells and virus in the absence of compound), cell controls (containing cells in the absence of virus and compound) and medium controls (containing medium in the absence of cells, virus and compounds). To the wells assigned as medium control, 25 μL of culture medium was added instead of Vero cells. Once the cells were added to the plates, the plates were incubated for 30 minutes at room temperature to allow the cells to distribute evenly within the wells. Next, the plates were incubated in a fully humidified incubator (37° C., 5% CO2) until the next day. Then, DENV-2 strain 16681, labeled with eGFP, was added at a multiplicity of infection (MOI) of 0.5. Therefore, 15 μL of virus suspension was added to all the wells containing test compound and to the wells assigned as virus control. In parallel, 15 μL of culture medium was added to the medium and cell controls. Next, the plates were incubated for 3 days in a fully humidified incubator (37° C., 5% CO2). At the day of the read out, the eGFP fluorescence was measured using an automated fluorescence microscope at 488 nm (blue laser). Using an in-house LIMS system, inhibition dose response curves for each compound were calculated and the half maximal effective concentration (EC50) was determined. Therefore, the percent inhibition (I) for every test concentration is calculated using the following formula: I=100*(ST−SCC)/(SVC−SCC); ST, SCC and SVC are the amount of eGFP signal in the test compound, cell control and virus control wells, respectively. The EC50 represents the concentration of a compound at which the virus replication is inhibited with 50%, as measured by a 50% reduction of the eGFP fluorescent intensity compared to the virus control. The EC50 is calculated using linear interpolation (Table 1).

Series [2] concerns Vero cells. Nature of the series: in vitro. Format: cell-based. Particulars: African green monkey. Here is the method: (§1) In parallel, the toxicity of the compounds was assessed on the same plates. Once the read-out for the eGFP signal was done, 10 μL of resazurin, a cell viability stain, was added to all wells of the 384-well plates. The resazurin assay is based on the reduction of the blue resazurin by NADH, produced by the cells, into the highly fluorescent product, resorufin. The formation of pink fluorescent resorufin is directly related to the number of viable cells in the well. The plates were incubated for an additional 5 hours in a fully humidified incubator (37° C., 5% CO2). Next, the plates were measured on an Infinite reader (Tecan) using an excitation wavelength of 530 nm. The half maximal cytotoxic concentration (CO50) was also determined, defined as the concentration required to reduce the resazurin conversion by 50% compared to that of the cell control wells (Table 1). Finally, the selectivity index (SI) was determined for the compounds, which was calculated as followed: SI=CC50/EC50.

A short description of series [3]: in vitro. It is filed as cell-based. Particulars: African green monkey, CC50. Here is the method:
as §1

[4] abbreviates: Dengue virus, DENV2, Vero, 72 h.

Structures are written as SMILES. Where only a bound is given, the exact number is not on record here.

The EC50 is the midpoint of the concentration-response curve. One may read the CC50 as the concentration that lowers cell viability or growth by half. In series [1], `COc1cc(NC(C(=O)c2c[nH]c3cc(OC)c(C)cc23)c2ccc(F)cc2OC)cc(OCCO)c1` (single isomer, unassigned) [Compound 6B, 2-(4-fluoro-2-methoxyphenyl)-2-((3-(2-hydroxyethoxy)-5-methoxyphenyl)amino)-1-(6-methoxy-5-methyl-1H-indol-3-yl)ethanone] had an EC50 of 290 nM. Besides, the CC50 in series [2] stood at 9.6 µM.

`COc1cc(NC(C(=O)c2c[nH]c3c(Cl)c(OC)ccc23)c2ccc(F)cc2OC)cc(OCCO)c1` (single isomer, unassigned) [Compound 8B, 1-(7-chloro-6-methoxy-1H-indol-3-yl)-2-(4-fluoro-2-methoxyphenyl)-2-((3-(2-hydroxyethoxy)-5-methoxyphenyl)amino)ethanone] showed an EC50 in series [1] of 150 nM. This compound also gave a CC50 in series [3] of 9.1 µM.

Take `COc1cc(NC(C(=O)c2c[nH]c3c(C)c(Cl)ccc23)c2ccc(F)cc2OC)cc(OCCO)c1` (racemic) [Compound 3, 1-(6-chloro-7-methyl-1H-indol-3-yl)-2-(4-fluoro-2-methoxyphenyl)-2-((3-(2-hydroxyethoxy)-5-methoxyphenyl)amino)ethanone]: the EC50 in series [1] (setting [4]) came out at 2.1 nM. In addition, in series [3], the CC50 was determined as 6.3 µM.

In turn, `COc1cc(NC(C(=O)c2c[nH]c3cc(F)c(F)cc23)c2ccc(F)cc2OC)cc(OCCO)c1` (racemic) [Compound 10, 1-(5,6-difluoro-1H-indol-3-yl)-2-(4-fluoro-2-methoxy-phenyl)-2-((3-(2-hydroxyethoxy)-5-methoxyphenyl)amino)ethanone] yielded an EC50 in series [1] (setting [4]) of 6.8 nM. In series [3], this compound gave a CC50 of 9.3 µM.

For `COc1cc(NC(C(=O)c2c[nH]c3c(C)cc(F)cc23)c2ccc(F)cc2OC)cc(OCCO)c1` (single isomer, unassigned) [Compound 9A, 2-(4-fluoro-2-methoxyphenyl)-1-(5-fluoro-7-methyl-1H-indol-3-yl)-2-((3-(2-hydroxyethoxy)-5-methoxyphenyl)amino)ethanone], the response in series [1] was half-maximal at 630 nM (EC50). Also, half-maximal cytotoxicity in series [3] (CC50) was put at 8.8 µM.

With `COc1cc(NC(C(=O)c2c[nH]c3cc(F)ccc23)c2ccc(F)cc2OC)cc(OCCO)c1` (single isomer, unassigned) [Compound 1B, 1-(6-fluoro-1H-indol-3-yl)-2-(4-fluoro-2-methoxyphenyl)-2-((3-(2-hydroxyethoxy)-5-methoxyphenyl)amino)ethanone], the EC50 in series [1] came to 660 nM. Also, in series [3], the CC50 was found to be 12 µM.

Consider `COc1cc(NC(C(=O)c2c[nH]c3c(C)c(OC)ccc23)c2ccc(F)cc2OC)cc(OCCO)c1` (racemic) [Compound 11, 2-(4-fluoro-2-methoxyphenyl)-2-((3-(2-hydroxyethoxy)-5-methoxyphenyl)amino)-1-(6-methoxy-7-methyl-1H-indol-3-yl)ethanone], for which a half-maximal effect in series [1] (setting [4]) (EC50) was put at 2.4 nM. Besides, the CC50 in series [3] came out at 10 µM.

Compound `COc1cc(NC(C(=O)c2c[nH]c3cc(OC)c(F)cc23)c2ccc(F)cc2OC)cc(OCCO)c1` (racemic) [Compound 7, 2-(4-fluoro-2-methoxyphenyl)-1-(5-fluoro-6-methoxy-1H-indol-3-yl)-2-((3-(2-hydroxyethoxy)-5-methoxyphenyl)amino)ethanone] came in with an EC50 in series [1] (setting [4]) of 14 nM. In addition, in series [3], the 50% cytotoxic concentration (CC50) was > 9.7 µM.

`COc1cc(NC(C(=O)c2c[nH]c3c(C)c(F)ccc23)c2ccc(F)cc2OC)cc(OCCO)c1` (racemic) [Compound 2, 2-(4-fluoro-2-methoxyphenyl)-1-(6-fluoro-7-methyl-1H-indol-3-yl)-2-((3-(2-hydroxyethoxy)-5-methoxyphenyl)amino)ethanone] registered an EC50 in series [1] (setting [4]) of 5.4 nM. In series [3], the midpoint of cytotoxicity, the CC50, lay at 7 µM.

In series [1], `COc1cc(NC(C(=O)c2c[nH]c3c(C)c(Cl)ccc23)c2ccc(F)cc2OC)cc(OCCO)c1` (single isomer, unassigned) [Compound 3B, 1-(6-chloro-7-methyl-1H-indol-3-yl)-2-(4-fluoro-2-methoxyphenyl)-2-((3-(2-hydroxyethoxy)-5-methoxyphenyl)amino)ethanone] showed an EC50 of 180 nM. For the same compound, it took 5.8 µM to reach half-maximal cytotoxicity in series [3] (CC50).

For `COc1cc(NC(C(=O)c2c[nH]c3c(F)cc(C)cc23)c2ccc(F)cc2OC)cc(OCCO)c1` (single isomer, unassigned) [Compound 12A, 2-(4-fluoro-2-methoxyphenyl)-1-(7-fluoro-5-methyl-1H-indol-3-yl)-2-((3-(2-hydroxyethoxy)-5-methoxyphenyl)amino)ethanone], in series [1], the response was half-maximal at 930 nM (EC50). Also, half-maximal cytotoxicity in series [3] (CC50) was put at 9.2 µM.

In turn, `COc1cc(NC(C(=O)c2c[nH]c3c(F)c(F)ccc23)c2ccc(F)cc2OC)cc(OCCO)c1` (racemic) [Compound 5, 1-(6,7-difluoro-1H-indol-3-yl)-2-(4-fluoro-2-methoxyphenyl)-2-((3-(2-hydroxyethoxy)-5-methoxyphenyl)amino)ethanone] yielded an EC50 in series [1] (setting [4]) of 8.9 nM. Further, the CC50 in series [3] was 5.2 µM.

Consider `COc1cc(NC(C(=O)c2c[nH]c3c(F)c(F)ccc23)c2ccc(F)cc2OC)cc(OCCO)c1` (single isomer, unassigned) [Compound 5A, 1-(6,7-difluoro-1H-indol-3-yl)-2-(4-fluoro-2-methoxyphenyl)-2-((3-(2-hydroxyethoxy)-5-methoxyphenyl)amino)ethanone], for which the EC50 in series [1] was 440 nM. In series [3], the CC50 worked out at 7.4 µM.

In series [1], `COc1cc(NC(C(=O)c2c[nH]c3cc(Cl)ccc23)c2ccc(F)cc2OC)cc(OCCO)c1` (single isomer, unassigned) [Compound 4B, 1-(6-chloro-1H-indol-3-yl)-2-(4-fluoro-2-methoxyphenyl)-2-((3-(2-hydroxyethoxy)-5-methoxyphenyl)amino)ethanone] gave a half-maximal effective concentration (EC50) of 380 nM. This compound had a CC50 in series [3] of 7.7 µM.

As to `COc1cc(NC(C(=O)c2c[nH]c3c(Cl)c(OC)ccc23)c2ccc(F)cc2OC)cc(OCCO)c1` (racemic) [Compound 8, 1-(7-chloro-6-methoxy-1H-indol-3-yl)-2-(4-fluoro-2-methoxyphenyl)-2-((3-(2-hydroxyethoxy)-5-methoxyphenyl)amino)ethanone], in series [1] (setting [4]), the midpoint of the response, the EC50, lay at 3.9 nM. The compound further yielded a CC50 in series [3] of 6.8 µM.

In the case of `COc1cc(NC(C(=O)c2c[nH]c3c(C)c(F)ccc23)c2ccc(F)cc2OC)cc(OCCO)c1` (single isomer, unassigned) [Compound 2A, 2-(4-fluoro-2-methoxyphenyl)-1-(6-fluoro-7-methyl-1H-indol-3-yl)-2-((3-(2-hydroxyethoxy)-5-methoxyphenyl)amino)ethanone], the EC50 in series [1] was determined as 660 nM. It took 5.4 µM to reach half-maximal cytotoxicity in series [3] (CC50).

Compound `COc1cc(NC(C(=O)c2c[nH]c3cc(F)ccc23)c2ccc(F)cc2OC)cc(OCCO)c1` (racemic) [Compound 1, 1-(6-fluoro-1H-indol-3-yl)-2-(4-fluoro-2-methoxyphenyl)-2-((3-(2-hydroxyethoxy)-5-methoxyphenyl)amino)ethanone] yielded an EC50 in series [1] (setting [4]) of 8 nM. For the same compound, the midpoint of cytotoxicity in series [3], the CC50, lay at 11 µM.

`COc1cc(NC(C(=O)c2c[nH]c3c(C)c(OC)ccc23)c2ccc(F)cc2OC)cc(OCCO)c1` (single isomer, unassigned) [Compound 11B, 2-(4-fluoro-2-methoxyphenyl)-2-((3-(2-hydroxyethoxy)-5-methoxyphenyl)amino)-1-(6-methoxy-7-methyl-1H-indol-3-yl)ethanone]: the EC50 in series [1] came out at 410 nM. In addition, the midpoint of cytotoxicity in series [3], the CC50, lay at 12 µM.

In turn, `COc1cc(NC(C(=O)c2c[nH]c3cc(F)c(F)cc23)c2ccc(F)cc2OC)cc(OCCO)c1` (single isomer, unassigned) [Compound 10A, 1-(5,6-difluoro-1H-indol-3-yl)-2-(4-fluoro-2-methoxy-phenyl)-2-((3-(2-hydroxyethoxy)-5-methoxyphenyl)amino)ethanone] came in with an EC50 in series [1] of 580 nM. In addition, half-maximal cytotoxicity in series [3] (CC50) was put at 11 µM.
